Source: the METLIN SMRT retention time set (Domingo-Almenara et al. 2019)

assay: gradient 5% acetonitrile 3 min, to 50% in 2 min, to 85% in 15 min, held 3 min, 100 µL/min; conditions: column: Zorbax Extend-C18 2.1 x 50 mm; eluents: water / acetonitrile, 0.1% formic acid
In short: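 Retention times of pure standards were taken from adduct peaks that were selected by computer and manually inspected. Over 3 months, mixtures of ~100 molecules were run by HPLC–quadrupole time-of-flight mass spectrometry in positive and negative ionization mode. The Zorbax Extend-C18 column (2.1 × 50 mm, 1.8 μm) ran at 100 μL/min in water and acetonitrile, each containing 0.1% formic acid, with 40 μL dead volume and 900 μL dwell volume.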

Row | RP-LC retention time [s] | SMILES
1 | 705 | COc1ccc(-c2nc3sc(C(N)=O)c(C)n3c2NC(C)(C)C)cc1
2 | 1300 | COc1ccc(Cl)cc1NC(=O)c1cc(C)n2nc(-c3ccco3)cc2n1
3 | 998 | COc1ccc(N2CCN(C(=O)c3sc4cccc(F)c4c3OC)CC2)cc1
4 | 708 | CC(C)CNC(=O)c1ccc2c(c1)N(C)C(=O)CS2
5 | 882 | CCc1nc2cc(-c3noc(CNC(=O)Cc4ccc(Cl)cc4)n3)ccc2o1
6 | 692 | CCCNC(=O)C1CCCN(c2nc3ncn(CC(=O)Nc4ccc(F)cc4)c(=O)c3s2)C1 (centres undefined)
7 | 972 | COC(=O)c1sc2ncccc2c1NC(=O)c1cccc(C)c1
8 | 778 | O=C(Nc1cccc(F)c1)C1CCc2nc(N3CCOCC3)ncc2C1 (centres undefined)
9 | 653 | Cc1cc(NC(=O)NC(=O)c2ccccc2NC(=O)CN)ccc1Oc1ncc(Br)cn1
10 | 618 | CC1(C)CC(NC(=O)COc2ccccc2Cl)CC(C)(C)N1
11 | 716 | CCC1CCCCN1C(=O)c1cnc2nc(C)ccc2c1Nc1ccc(C)c(F)c1 (centres undefined)
12 | 946 | Cc1ccc(C)c(N2CCN(C(=O)c3c(C)sc4ccn(C)c(=O)c34)CC2)c1
13 | 687 | Cc1cccc(NC(=O)Cn2cnc(-c3nc(C)cs3)c2)c1
14 | 1150 | CCCNC(=O)N(C1CCOCC1)C1CCN(C(=O)c2nn(C)c3ccccc23)CC1
15 | 828 | COc1ccc(-c2cn3ccn(-c4ccc(Cl)cc4)c(=O)c3n2)cc1
16 | 1030 | O=C(NC1CCCCC1)c1nc(-c2cn(-c3ccc(Cl)cc3)nn2)no1
17 | 889 | CN(C)c1ccc(C(=O)NC(Cc2ccccc2)c2nnc(N3CCCCC3)o2)cc1 (centres undefined)
18 | 734 | COc1ccc(C2(CNC(=O)Cc3cccs3)CCOCC2)cc1
19 | 692 | CCc1nnc(-c2ccc(=O)n(CC(=O)Nc3ccc(C)cc3F)c2)o1
20 | 744 | CCN1c2ccc(C)cc2C(=O)NC12CCN(C(=O)c1ccc(OC)c(OC)c1)CC2
21 | 567 | Cc1ccc(-n2nc3c(N4CCCC(C(=O)NCCN5CCN(C)CC5)C4)nnc(C)c3c2C)cc1 (centres undefined)
22 | 678 | O=C1CCCc2c1cc(C(=O)NCc1ccccn1)c(=O)n2-c1ccc(C(F)(F)F)cc1

Row | RP-LC retention time [s] | SMILES
23 | 956 | Cc1ccc(-c2cn3c(CC(=O)N4CCCc5ccccc54)csc3n2)cc1C
24 | 816 | Cc1nc(-c2ccc(C(=O)N3CCC(C(=O)N4CCc5ccccc54)CC3)cc2)no1
25 | 767 | Cc1ccc(OCC(=O)N2CCCCC2c2nncn2CC2CC2)cc1 (centres undefined)
26 | 608 | Cc1ccc(N2CCC(C(=O)Nc3ccc4c(c3)Cc3ccccc3-4)CC2)nn1
27 | 883 | O=C(Nc1cccc([N+](=O)[O-])c1)C(=O)Nc1ccc2c(c1)N(C(=O)C1CC1)CCC2
28 | 699 | Cc1ccc(-c2nc3n(CC(=O)N4CCOCC4)c4c(c(=O)n3n2)CCC4)cc1
29 | 767 | CCCN(C(=O)Cc1c(C(=O)O)c(C)cn1CC)c1cccc(Cl)c1
30 | 971 | COc1ccc(-c2ncc3c(n2)CCN(C(=O)c2ccc(F)cc2Cl)C3)cc1
31 | 583 | COc1cccc(CN2CCC3(CC2)NCCc2c3[nH]c3ccccc23)c1
32 | 772 | COc1ccc(C2C(C(=O)N3CCCC(C)C3)CCC(=O)N2c2cc(OC)c(OC)c(OC)c2)cc1 (centres undefined)
33 | 851 | CCOC(=O)c1c(C)[nH]c(C(=O)N2CCC(C(C)C(=O)NCc3ccccc3C)CC2)c1C (centres undefined)
34 | 1120 | CCOC(=O)c1nc(N2CCN(c3cc(C)ccc3C)CC2)c2ccccc2n1
35 | 557 | COc1ccc(C(=O)N2CCn3c(C)nnc3C2)c(OC)c1
36 | 1030 | O=S(=O)(c1cccs1)N1CCc2nc(-c3ccc(F)cc3)ncc2C1
37 | 775 | CCN1CCCn2cc(S(=O)(=O)Nc3ccc(C)cc3Cl)cc2C1=O
38 | 795 | COc1cc(Cl)ccc1C(=O)N1CCN(c2cc(-c3cccs3)[nH]n2)CC1
39 | 833 | Cc1cccc(CN2C(=O)C3(CCOCC3)CC2c2nnnn2C(C)(C)C)c1 (centres undefined)
40 | 1320 | COc1ccc(-c2ccnn2-c2ccc(SCc3ccccc3)nn2)cc1
41 | 876 | CCn1cc(C2=CCN(C(=O)Cc3ccc(F)cc3)CC2)c2cccnc21
42 | 644 | O=c1n(Cc2ccccc2)nc2ccc(S(=O)(=O)N3CCc4ccccc4C3)cn12
43 | 945 | O=C(Nc1ccc(N2CCOCC2)cc1)C1CCCN(c2nccnc2Sc2ccccc2)C1 (centres undefined)
44 | 784 | Nc1ccc(SCc2nnc(-c3cccc(F)c3)o2)cc1

Row | RP-LC retention time [s] | SMILES
45 | 864 | CC(C)CNC(=O)NC(C(=O)N1CCc2ccccc21)c1ccccc1 (centres undefined)
46 | 868 | CCN(CC)c1nc2ccsc2c(=O)n1CC(=O)NCc1ccc(F)cc1F
47 | 943 | Cc1c(Cl)cccc1NC(=O)C(=O)NCc1ccsc1
48 | 1030 | CCOc1ccccc1NC(=O)CSc1ncnc2c1nnn2-c1ccc(OC)cc1
49 | 1360 | CC(C)(C)c1cc(C(=O)Nc2cc(F)cc(F)c2)nc2ccnn12
50 | 832 | COc1cccc(C2OC(c3cccc(Cn4cccn4)c3)=NN2C(C)=O)c1OC(C)=O (centres undefined)
51 | 800 | CCC1=NS(=O)(=O)c2cccnc2N1c1ccc2c(c1)OCCO2
52 | 614 | CC(C)(C)C(=O)NCc1cccnc1-c1ccc(F)cc1
53 | 673 | O=C(c1ccc(S(=O)(=O)c2ccc(Br)cc2)nc1)N1CCN(c2ccccn2)CC1
54 | 778 | Cn1cc(SCC(=O)NCc2ccco2)c2ccccc21
55 | 872 | CCC1CN(C(=O)N2CCC(C(=O)NCc3ccco3)CC2)c2cc(C)ccc2O1 (centres undefined)
56 | 580 | Cc1cncn(CC(=O)NCc2cccs2)c1=O
57 | 586 | c1cc(N2CCCCCC2)ncc1-c1noc(CN2CCCC2)n1
58 | 763 | CCC(=O)N1CCc2cc(N3CC(C(=O)Nc4cccc(F)c4)CC3=O)ccc21 (centres undefined)
59 | 666 | Cc1nc2c(c(=O)n1CC(=O)NCCC1=CCCCC1)CCN(Cc1ccccc1)C2
60 | 593 | COc1ccc(N2CCN(C(=O)C3CCCN(c4ccncc4)C3)CC2)cc1 (centres undefined)
61 | 925 | COc1ccc(OC)c(N2C=C(C#N)S(=O)(=O)c3ccc(C)cc32)c1
62 | 1220 | CCN1C(=O)C2(CCN(S(=O)(=O)c3ccc4c(c3)CCCC4)CC2)c2ccccc21
63 | 1100 | O=c1c2sccc2n(Cc2nc(-c3ccc(F)cc3)no2)c(=O)n1Cc1ccc(F)cc1
64 | 894 | CC(C)CC(C(=O)N1CCOCC1)N1CC2=C(C1=O)C(c1ccccc1Cl)NC(=O)N2C (centres undefined)
65 | 838 | CCn1ncn2cc(S(=O)(=O)NC(C)c3ccccc3)cc2c1=O (centres undefined)
66 | 790 | CC(=O)Nc1ccc(C2(C(=O)NCc3ccc(C)cc3)CCC2)cc1

Row | RP-LC retention time [s] | SMILES
67 | 719 | COCCNC(=O)c1cc2c(=O)n(Cc3ccccc3)ccc2s1
68 | 663 | Cn1c(=O)sc2cc(S(=O)(=O)N3CCC(C(=O)N4CCOCC4)CC3)ccc21
69 | 692 | NC(=O)CNC(=O)c1cc2c(s1)N(CC1CC1)CCCC2
70 | 625 | O=C(CCCn1c(=O)c2cccn2c2ccccc21)N1CCN(c2ccccn2)CC1
71 | 840 | O=C(NC1CCN(c2cc(-c3ccc(F)cc3)[nH]n2)C1)c1cccc(OC(F)(F)F)c1 (centres undefined)
72 | 634 | O=C(C1CCN(c2ccc(Cl)cc2)C1=O)N1CCN(c2ccccn2)CC1 (centres undefined)
73 | 796 | CCc1c(C(=O)O)nnn1-c1ccc2c(c1)CCC2
74 | 932 | COc1cc(NC(=O)c2noc3c2CC(C)CC3)cc(OC)c1OC (centres undefined)
75 | 645 | O=C(c1nc(-c2cccc(F)c2)n2c1CCCCC2)N1CCN(c2ccccn2)CC1
76 | 747 | O=C(NCc1ccco1)C1CCN(Cc2cc3ccccc3n2Cc2ccccc2)CC1
77 | 683 | CC(C)OCCCNC(=O)C1CCCN(c2ccc(-c3ccccc3)nn2)C1 (centres undefined)
78 | 826 | COc1ccc(NS(=O)(=O)c2cc3c(s2)CCN(C(=O)C2CC2)C3)cc1Cl
79 | 976 | COc1cc(NC(=O)C(=O)c2cccn2C)cc(OC)c1
80 | 560 | O=C(NCCCN1CCCCC1)C1CCCN(c2cnc3nccnc3c2)C1 (centres undefined)
81 | 776 | O=C(Cn1ccc2sccc2c1=O)Nc1ccc(Cl)cc1
82 | 977 | CC(=O)c1cccc(NC(=O)c2noc3c2CCCCC3)c1
83 | 629 | COc1ccc(CNC(=O)CN2CCc3[nH]c4c(C)cc(C)cc4c(=O)c3C2)cc1
84 | 707 | Cc1nc(CNC(=O)C2CCN(C(=O)Nc3cccc(Br)c3)CC2)cs1
85 | 814 | CCc1nnc(-c2cccc(OCC(=O)N3CCCc4ccccc43)c2)o1
86 | 685 | CCN(CC)S(=O)(=O)c1ccc2nc(N3CCN(Cc4ccc5c(c4)OCO5)CC3)cnc2c1
87 | 1130 | CC(C)CN(CC(C)C)c1nc(-c2ccc(Cl)cc2)nc2ccccc12
88 | 663 | COc1ccc(OC)c(CNC(=O)C2CCN(S(=O)(=O)c3cn(C)cn3)CC2)c1

Row | SMILES | RP-LC retention time [s]
89 | C[C@@H](Cc1ccc(OCC(=O)O)cc1)NC[C@@H](O)c1cccc(Cl)c1 | 704
